Results: patent publication US8575158B2, “1-phenyl-substituted heterocyclyl derivatives and their use as prostaglandin D2 receptor modulators” (Actelion Pharmaceuticals Ltd., priority 2010, dated 2013)
pIC50: −log10 of the molar value.

Target: T1, hCRTH2 receptor (Homo sapiens, UniProt Q9Y5Y4)
T1 construct: expressed in transfected cells; host or cells: HEK293
T1 sequence (Q9Y5Y4 1-395): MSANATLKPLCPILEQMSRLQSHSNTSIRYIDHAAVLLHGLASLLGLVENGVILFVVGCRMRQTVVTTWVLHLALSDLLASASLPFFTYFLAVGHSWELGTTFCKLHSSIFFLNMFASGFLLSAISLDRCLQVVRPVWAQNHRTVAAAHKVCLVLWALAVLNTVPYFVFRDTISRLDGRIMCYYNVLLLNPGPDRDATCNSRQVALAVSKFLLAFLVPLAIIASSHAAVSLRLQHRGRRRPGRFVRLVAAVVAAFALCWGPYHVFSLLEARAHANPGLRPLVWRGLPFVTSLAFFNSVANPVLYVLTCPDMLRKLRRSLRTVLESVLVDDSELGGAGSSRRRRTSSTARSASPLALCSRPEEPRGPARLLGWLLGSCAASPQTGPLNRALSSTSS
Test: Radioligand displacement assay (3H-PGD2) on hCRTH2 receptor membranes
Type: binding
Conditions: antagonistic activity, 3H-PGD2 radioligand displacement, HEK293-hCRTH2 membranes

SMILES	pIC50
CCn1nc(C)cc1CCOC(=O)N1CCc2c(ccc(F)c2F)[C@H]1c1cc(Cl)ccc1OCC(=O)O [Example 314, (S)-1-(2-Carboxymethoxy-5-chloro-phenyl)-5,6-difluoro-3,4-dihydro-1H-isoquinoline-2-carboxylic acid 2-(2-ethyl-5-methyl-2H-pyrazol-3-yl)-ethyl ester]	8.01
Cn1cncc1COC(=O)N1CCc2c(ccc(F)c2F)[C@H]1c1cc(Cl)ccc1OCC(=O)O [Example 315, (S)-1-(2-Carboxymethoxy-5-chloro-phenyl)-5,6-difluoro-3,4-dihydro-1H-isoquinoline-2-carboxylic acid 3-methyl-3H-imidazol-4-ylmethyl ester]	8.55
Cc1cc(C)n(CCOC(=O)N2CCc3c(ccc(F)c3F)[C@H]2c2cc(Cl)ccc2OCC(=O)O)n1 [Example 316, (S)-1-(2-Carboxymethoxy-5-chloro-phenyl)-5,6-difluoro-3,4-dihydro-1H-isoquinoline-2-carboxylic acid 2-(3,5-dimethyl-pyrazol-1-yl)-ethyl ester]	8.29
Cc1cnn(COC(=O)N2CCc3c(ccc(F)c3F)[C@H]2c2cc(Cl)ccc2OCC(=O)O)c1 [Example 317, (S)-1-(2-Carboxymethoxy-5-chloro-phenyl)-5,6-difluoro-3,4-dihydro-1H-isoquinoline-2-carboxylic acid 4-methyl-pyrazol-1-ylmethyl ester]	7.83
Cc1nc2ccccc2n1CCOC(=O)N1CCc2c(ccc(F)c2F)[C@H]1c1cc(Cl)ccc1OCC(=O)O [Example 318]	6.86
O=C(O)COc1ccc(Cl)cc1[C@@H]1c2ccc(F)c(F)c2CCN1C(=O)OCc1nc2ccccc2s1 [Example 319, (S)-1-(2-Carboxymethoxy-5-chloro-phenyl)-5,6-difluoro-3,4-dihydro-1H-isoquinoline-2-carboxylic acid benzothiazol-2-ylmethyl ester]	8.84
O=C(O)COc1ccc(Cl)cc1[C@@H]1c2ccc(F)c(F)c2CCN1C(=O)OCc1nc2ccccc2o1 [Example 320, (S)-1-(2-Carboxymethoxy-5-chloro-phenyl)-5,6-difluoro-3,4-dihydro-1H-isoquinoline-2-carboxylic acid benzooxazol-2-ylmethyl ester]	9.28
Cn1nc(COC(=O)N2CCc3c(ccc(F)c3F)[C@H]2c2cc(Cl)ccc2OCC(=O)O)c2ccccc21 [Example 321, (S)-1-(2-Carboxymethoxy-5-chloro-phenyl)-5,6-difluoro-3,4-dihydro-1H-isoquinoline-2-carboxylic acid 1-methyl-1H-indazol-3-ylmethyl ester]	8.74
O=C(O)COc1ccc(Cl)cc1[C@@H]1c2ccc(F)c(F)c2CCN1C(=O)OCn1ncc2ccccc21 [Example 322, (S)-1-(2-Carboxymethoxy-5-chloro-phenyl)-5,6-difluoro-3,4-dihydro-1H-isoquinoline-2-carboxylic acid indazol-1-ylmethyl ester]	9.28
O=C(O)COc1ccc(Cl)cc1[C@@H]1c2ccc(F)c(F)c2CCN1C(=O)OCc1noc2ccccc12 [Example 323, (S)-1-(2-Carboxymethoxy-5-chloro-phenyl)-5,6-difluoro-3,4-dihydro-1H-isoquinoline-2-carboxylic acid benzo[d]isoxazol-3-ylmethyl ester]	8.92
O=C(O)COc1ccc(Cl)cc1[C@@H]1c2ccc(F)cc2CCN1C(=O)OCc1nccs1 [Example 324, (S)-1-(2-Carboxymethoxy-5-chloro-phenyl)-6-fluoro-3,4-dihydro-1H-isoquinoline-2-carboxylic acid thiazol-2-ylmethyl ester]	8.20
Cc1ncsc1CCOC(=O)N1CCc2cc(F)ccc2[C@H]1c1cc(Cl)ccc1OCC(=O)O [Example 325, (S)-1-(2-Carboxymethoxy-5-chloro-phenyl)-6-fluoro-3,4-dihydro-1H-isoquinoline-2-carboxylic acid 2-(4-methyl-thiazol-5-yl)-ethyl ester]	7.67
Cc1cnc(COC(=O)N2CCc3cc(F)ccc3[C@H]2c2cc(Cl)ccc2OCC(=O)O)s1 [Example 326, (S)-1-(2-Carboxymethoxy-5-chloro-phenyl)-6-fluoro-3,4-dihydro-1H-isoquinoline-2-carboxylic acid 5-methyl-thiazol-2-ylmethyl ester]	8.06
Cc1csc(COC(=O)N2CCc3cc(F)ccc3[C@H]2c2cc(Cl)ccc2OCC(=O)O)n1 [Example 327, (S)-1-(2-Carboxymethoxy-5-chloro-phenyl)-6-fluoro-3,4-dihydro-1H-isoquinoline-2-carboxylic acid 4-methyl-thiazol-2-ylmethyl ester]	8.47
Cc1ncc(COC(=O)N2CCc3cc(F)ccc3[C@H]2c2cc(Cl)ccc2OCC(=O)O)s1 [Example 328, (S)-1-(2-Carboxymethoxy-5-chloro-phenyl)-6-fluoro-3,4-dihydro-1H-isoquinoline-2-carboxylic acid 2-methyl-thiazol-5-ylmethyl ester]	8.49
Cc1nc(COC(=O)N2CCc3cc(F)ccc3[C@H]2c2cc(Cl)ccc2OCC(=O)O)cs1 [Example 329, (S)-1-(2-Carboxymethoxy-5-chloro-phenyl)-6-fluoro-3,4-dihydro-1H-isoquinoline-2-carboxylic acid 2-methyl-thiazol-4-ylmethyl ester]	8.23
Cc1cc(COC(=O)N2CCc3cc(F)ccc3[C@H]2c2cc(Cl)ccc2OCC(=O)O)on1 [Example 330, (S)-1-(2-Carboxymethoxy-5-chloro-phenyl)-6-fluoro-3,4-dihydro-1H-isoquinoline-2-carboxylic acid 3-methyl-isoxazol-5-ylmethyl ester]	7.97
Cc1conc1COC(=O)N1CCc2cc(F)ccc2[C@H]1c1cc(Cl)ccc1OCC(=O)O [Example 331, (S)-1-(2-Carboxymethoxy-5-chloro-phenyl)-6-fluoro-3,4-dihydro-1H-isoquinoline-2-carboxylic acid 4-methyl-isoxazol-3-ylmethyl ester]	8.14
O=C(O)COc1ccc(Cl)cc1[C@@H]1c2ccc(F)cc2CCN1C(=O)OCc1cnccn1 [Example 332, (S)-1-(2-Carboxymethoxy-5-chloro-phenyl)-6-fluoro-3,4-dihydro-1H-isoquinoline-2-carboxylic acid pyrazin-2-ylmethyl ester]	8.12
O=C(O)COc1ccc(Cl)cc1[C@@H]1c2ccc(F)cc2CCN1C(=O)OCc1ccncn1 [Example 333, (S)-1-(2-Carboxymethoxy-5-chloro-phenyl)-6-fluoro-3,4-dihydro-1H-isoquinoline-2-carboxylic acid pyrimidin-4-ylmethyl ester]	7.34
O=C(O)COc1ccc(Cl)cc1[C@@H]1c2ccc(F)cc2CCN1C(=O)OCc1cncnc1 [Example 334, (S)-1-(2-Carboxymethoxy-5-chloro-phenyl)-6-fluoro-3,4-dihydro-1H-isoquinoline-2-carboxylic acid pyrimidin-5-ylmethyl ester]	8.31
O=C(O)COc1ccc(Cl)cc1[C@@H]1c2ccc(F)cc2CCN1C(=O)OCCc1ccccc1 [Example 335, (S)-1-(2-Carboxymethoxy-5-chloro-phenyl)-6-fluoro-3,4-dihydro-1H-isoquinoline-2-carboxylic acid phenethyl ester]	7.88
